Where two headings read alike, the source gives them in different places. Where no end group is shown, it is not given here.
What was measured:
[1] = test system: human iPSC-derived cardiomyocytes; assay: IK1 density in hiPSC-CM infected with AAV9 encoding the peptide, patch-clamp; assay type: cell-based; details: hiPSC-CM infected 48 hours with AAV9 encoding DECA-11; vs. Ad-td-Tomato infected cardiomyocytes; P<0.05
[2] = test system: human iPSC-derived cardiomyocytes; details: hiPSC-CM; sustained current sensitive to TTX (10 µM), as percentage of the current peak; 500 ms pulses from -120 to -45 mV
[3] = test system: minimal promoter of the human KCNJ2 gene; assay: Luciferase promoter assay in hEK-293 cells, KCNJ2; assay type: cell-based; details: hEK-293 cells co-transfected with cDNA SEQ ID NO: 5; 48 hours after transfection
Experimental: (§1) 48 hours after transfection, luciferase assays were performed using the LightSwitch Luciferase Assay reagent, also from Active Motif, and a Berthold luminometer. All assays were performed in triplicate and each point represents the mean of each technical triplicate.

[4] = test system: human iPSC-derived cardiomyocytes; assay: INa density in hiPSC-CM infected with AAV9 encoding the peptide, patch-clamp; assay type: cell-based; details: hiPSC-CM infected 48 hours with AAV9 encoding DECA-11; vs. Ad-td-Tomato infected cardiomyocytes; P<0.05
[5] = test system: human Kir2.1 channels; assay: IKir2.1 density, whole-cell patch-clamp in CHO cells co-transfected with Kir2.1 and the cDNA encoding the peptide; assay type: cell-based; details: CHO cells co-transfected with cDNA SEQ ID NO: 5; vs. cells transfected only with Kir2.1 channels; P<0.05
Experimental: (§2) To do this, CHO cells were transfected with the cDNA that encodes the human cardiac channels (Kir2.1) that generate IK1 (Origene, USA) (SEQ ID NO: 22), co-transfecting cells, or not, with the cDNA described in SEQ ID NO: 5. […] The sampling frequency was 4 kHz and the data, filtered at a frequency of 2 kHz, were stored on hard disks for further analysis using the CLAMPFIT application of the pCLAMP software. The current (IKir2.1) was recorded by applying 250 ms pulses from -120 to +20 mV from a holding potential of -60 mV. The density of the same was obtained by normalising the amplitude of IKir2.1 at the end of the pulse by the capacitance of each cell (pA/pF). […] Like in example 2.1, each point represents the mean±SEM of "n" experiments obtained from at least 3 different CHO cell plates. One-way ANOVA followed by the Tukey test. * P<0.05 vs. cells transfected only with Kir2.1 channels.

[6] = test system: dissociated cardiomyocytes from Sham and TAC mice; assay: INa density in dissociated cardiomyocytes, murine TAC model of HFrEF; assay type: in vivo; details: pre-treatment with DECA-11 (AAV9)
From the text: (§3) A murine model of CI with reduced ejection fraction (HFrEF) was used to analyse the effect of SEQ ID NO: 3 on the decrease in INa and IK1 caused by electrical remodelling associated with Cl. The mice are subjected to transverse aortic constriction (TAC) with ligation, and pressure overload leads to the occurrence of cardiac hypertrophy and Cl. The mice were produced at the Medical Research Centre of the University of Navarra (CIMA), under the direction of Dr Aránzazu González Miqueo.
(§4) Eight-week-old mice were administered 3.5×10^10 particles of adeno-associated virus type 9 that encoded either the fluorescent reporter td-Tomato (Aav-dt-T) alone, or the reporter and the peptide DECA-11. At 12 weeks of age, an echocardiographic check-up (baseline) was performed and at week 13 they underwent surgery in which the aorta was ligated (TAC animals) or not (Sham animals).
That same week they were sent to the UCM animal facility. Next, the mice were heparinised and anaesthetised and then sacrificed by cervical dislocation, at a rate of one per day, and a thoracotomy was performed to remove the heart which was mounted through the aorta into a cannula connected to a Langendorff apparatus for enzymatic dissociation of the cardiac myocytes. […]

[7] = test system: minimal promoter of the human SCN5A gene; assay: Luciferase promoter assay in hEK-293 cells, SCN5A; assay type: cell-based; details: hEK-293 cells co-transfected with cDNA SEQ ID NO: 5; 48 hours after transfection
Experimental: as §1

[8] = test system: human Kir2.1 channels; assay: Density of IKir2.1 by whole-cell patch-clamp in CHO cells co-transfected with the cDNA encoding the peptide; assay type: cell-based; details: CHO cells expressing Kir2.1 plus cDNA of the peptide (SEQ ID NO: 5), vs cells transfected only with Kir2.1 channels
Experimental: as §2

[9] = test system: human iPSC-derived cardiomyocytes; assay: INa, IK1 and INaL by patch-clamp in cardiomyocytes infected with adeno-associated virus encoding the peptide; assay type: cell-based; details: hiPSC-CM
From the text: One-way ANOVA followed by the Tukey test.

[10] = test system: murine model of CI with reduced ejection fraction (HFrEF); assay: Murine model of CI (transverse aortic constriction): capacitance, INa and IK1 of dissociated cardiomyocytes; assay type: in vivo, mice
From the text: as §3, §4
That same week they were sent to the UCM animal facility. Next, the mice were heparinised and anaesthetised and then sacrificed by cervical dislocation, at a rate of one per day, and a thoracotomy was performed to remove the heart which was mounted through the aorta into a cannula connected to a Langendorff apparatus for enzymatic dissociation of the cardiac myocytes. After removal of the heart, said heart was cannulated through the aorta and placed in a Langendorff apparatus. First, the hearts were perfused with modified Tyrode's solution (composition in mM: 136 NaCI, 4 KCI, 2 MgCl2, 1.8 CaCl2, 10 HEPES, 10 glucose, 3 pyruvic acid and 0.1 thiamine, pH=7.4 with NaOH) bubbled with oxygen and at 37°C for 3-5 minutes. Subsequently, they were perfused for another 8 minutes with the same solution without CaCl2. After 1-2 minutes, the heart stops beating. Next, they were perfused with Tyrode's solution without CaCl2 supplemented with 120 u/ml collagenase type II from Worthington and 0.5 u/ml protease XIV from Sigma. Lastly, the hearts were perfused with a solution called KB of the following composition (mM): 25 KCI, 10 KH2PO4, 2 MgCI2, 0.5 EGTA-K, 5 HEPES-K, 100 glutamic acid, 10 aspartic acid, 20 taurine, 5 creatine and 10 glucose (pH=7.2 with KOH). After this process has been completed, the heart was detached from the cannula and shaken in aliquots of KB solution where the myocytes were disintegrated and stored in the refrigerator for at least one hour before electrophysiological recordings were started.
Capacitance is an indirect and reliable measure of cell size. As can be observed, there was no significant difference in the capacitance of myocytes from Sham animals, had they been infected with Ad-td-Tomato (control) or with Aav-DECA-11.
To record INa in mouse cardiomyocytes, the composition of the external solution was (mM): 4 NaCl, 1 MgCl2, 1 CaCl2, 0.1 CdCl2, 133.5 CsCl, 20 HEPES and 11 glucose (pH=7.35 with CsOH) and the solution that filled the recording micropipette was (mM): 10 NaF, 110 CsF, 20 CsCl, 10 HEPES and 10 EGTA (pH 7.35 with CsOH). All other protocols and conditions were the same as those used for recording INa in human iPSC-derived cardiomyocytes (according to Example 2.3).
As indicated above, IK1 was also recorded in mouse cardiomyocytes from all four groups. […] In fact, the density of IK1 in TAC animals pretreated with DECA-11 is not different from that recorded in Sham animals.

[11] = test system: human minimal promoter of the KCNJ2 gene; assay: Luciferase assay in hEK-293 cells, minimal promoter of KCNJ2; assay type: cell-based; details: hEK-293, co-transfected with cDNA SEQ ID NO: 5, 48 hours
Experimental: as §1

[12] = cardiomyocytes from Sham animals
[13] = infection 48 hours before recording, vs Ad-td-Tomato
[14] = cardiomyocytes from TAC animals

| Sequence | density of IK1 [1] | INaL [2] | effect on the minimal promoter of the human KCNJ2 gene (luciferase) [3] | density of INa [4] | density of IKir2.1 [5] | density of INa ([6]; TAC cardiomyocytes) | density of INa [6, 12] | effect on the minimal promoter of the human SCN5A gene (luciferase) [7] | density of IKir2.1 [8] | INaL ([9]; TTX (10 µM) sensitive sustained current as percentage of the current peak) | density of IK1 [9, 13] | density of INa [9, 13] | capacitance of myocytes ([10]; TAC animals, vs untreated TAC animals) | IK1 [10, 12] | density of INa [10, 12] | IK1 [10, 14] | density of INa [10, 14] | effect on the minimal promoter of the human KCNJ2 gene [11] |
| --- | --- | --- | --- | --- | --- | --- | --- | --- | --- | --- | --- | --- | --- | --- | --- | --- | --- | --- |
| RFTRESLAAIE (listed as Homo sapiens) [SEQ ID NO: 3, 11-amino acid peptide, amino acids 15-25 of human Nav1.5] | significantly increase | does not increase | protranscriptional effect | significantly increase | significantly increase | significantly and markedly increased | increased | no significant effect | – | – | – | – | – | – | – | – | – | – |
| RFTRESLAAIE [DECA-11, RFTRESLAAIE] | – | – | – | – | – | – | – | – | significantly increase the density of IKir2.1 | does not increase INaL | significantly increase the density of INa and IK1 | significantly increase the density of INa and IK1 | significantly lower | significantly increases IK1 | increased the density of INa | significantly increases IK1 | significantly and markedly increased the density of INa | protranscriptional effect |

Source: EP4786486A1, “PEPTIDES FOR TREATING CARDIAC DISEASES” (Universidad Complutense De Madrid, priority 2023, dated 2025)
